The values below come from patent publication US10059733B2 (NUCORION PHARMACEUTICALS, INC., priority 2014, dated 2018).

The test system of one series is BxPC3. Briefly: TC50 assay with human cancer cell lines, 96 h: BxPC3. It counts as cell-based. To be noted: BXPC-3, 96 h, read-out: TC50 BxPC3 (μM).
The test system of a further series is RPK9 cells. As to the kind of experiment: TC50 assay in gemcitabine resistant (dCK deficient) RPK9 cells, 48 h. To be noted: read-out: TC50 (μM) in RPK9 cells at 48 hr. The protocol: (§1) Huh7 cells were maintained at 37° C. in a humidified atmosphere at 5% CO2 in DMEM containing 10% FBS. […] The cells were then treated with each compound at concentrations ranging from 500 μM to 0 μM in triplicate in DMEM media containing 2% FBS and 0.5% DMSO and without phenol red. After 48 h of treatment at 37° C., the relative number of living cells in each well was determined by using the CellTiter 96 system (Promega) according to the manufacturer's instructions. The 3-(4,5-dimethylthiazol-2-yl)-5-(3-carboxymethoxyphenyl)-2-(4-sulfophenyl)-2H-tetrazolium (MTS) and phenazine methosulfate (PMS) reagents were added to each well of the 96-well plate and the plate was incubated at 37° C. for approximately 2 h. The absorbance at 490 nm and 650 nm in each well was then determined by using a Flexstation 3 microplate reader ([…]). The absorbance determined at 650 nm was then subtracted from the absorbance determined at 490 nm to correct for light scattering. The corrected absorbance values representing the relative number of live cells in each condition were then plotted as a function of compound concentration, and the data were then fit to the following sigmoidal Emax equation by using Kaleidagraph: y=(Emax*x^Slope)/(TC50^Slope+x^Slope) where y is the relative corrected absorbance value, Emax is the maximum relative inhibition, x is the compound concentration, TC50 is the concentration of the compound at which the total cell population is reduced by 50%, and Slope is the slope of the curve.
PK9 and RPK9 cells were maintained at 37° C. in a humidified atmosphere at 5% CO2 in Roswell Park Memorial Institute (RPMI) media containing 10% FBS. […] The cells were then treated with each compound at concentrations ranging from […] to 0 μM in triplicate in RPMI media containing 2% FBS and 0.5% DMSO and without phenol red. […] The RPK9 cells were derived from the parental PK9 cell line, and are deficient for dCK activity due to the partial deletion of the dCK gene.

Another series deals with HEPG2. Briefly: TC50 assay with human cancer cell lines, 96 h: HEPG2. The series is classed as cell-based. Conditions: HepG2, 96 h, read-out: TC50 HEPG2 (μM).
Series [1] is described as follows: TC50 assay in Huh7 cells, 48 h (CellTiter 96). Conditions: human. On the procedure:
as §1
The data in Table 1 were determined for cells exposed to drug for 48 h. The IC50 is the concentration of each compound necessary to inhibit the replication of the HCV luciferase replicon to 50%. “TC50,” refers to toxic concentration necessary to reduce the cell population by 50%. All compounds were purified by HPLC.

The subject of the next series is HCV luciferase replicon. Briefly: Isobologram analysis of synergism with antiviral compound in HCV luciferase replicon. The series is classed as cell-based. On the procedure: Isobologram analysis was conducted to assess the potential synergistic interaction of representative disclosed compounds with representative antiviral compounds. The isobolgram analysis was conducted as previously described by Chou and Talalay (see Chou T. C. and Talalay P. “Analysis of combined drug effects: a new look at a very old problem.” Trends Pharmacol Sci 1983; 4:450-4; and Chou T. C. and Talalay P. “Quantitative analysis of dose-effect relationships: the combined effects of multiple drugs or enzyme inhibitors.” Adv Enzyme Regul 1984; 22:27-55; both of which are incorporated herein by reference in their entirety). The definitions of synergism are those described by Chou (see Chou, T. C. (2006) Theoretical basis, experimental design, and computerized simulation of synergism and antagonism in drug combination studies. Pharmacol Rev. 58(3):621-81, which is incorporated herein by reference in its entirety).
In the synergism studies described herein, the antiviral compound shown in Table 6 was assessed in combination with a representative disclosed compound, Compound 1.
For orientation: In antiviral work, replicon cells carry a viral genome segment that copies itself.

The next series has as its system Huh7 cells. As to the kind of experiment: Cell transport: cytotoxicity in Huh7 cells with or without ENT1 inhibitor NBTI. Conditions: for CC50: Homo sapiens, Huh-7, 48 h. On the procedure: as §1
To this end, Huh7 cells or PK9 cells were seeded in 96-well plates at a density of 5,000 cells/well or 2,500 cells/well, respectively, and the plates were incubated at 37° C. for 24 h to allow for cell attachment. The media was then removed from the plates and replaced with media containing 2% FBS, 0.5% DMSO and 10 μM NBTI. […] Subsequently, the cells were treated with each compound at final concentrations ranging from 500 μM to 0 μM in triplicate in media containing 2% FBS, 0.5% DMSO and 10 μM NBTI. […] The TC50 values of each compound in the presence or absence of the ENT1 inhibitor were then compared.

The next series concerns HEK293. Briefly: TC50 assay with human cancer cell lines, 96 h: HEK293. The series is classed as cell-based. Conditions: HEK293, 96 h, read-out: TC50 HEK293 (μM).
Series [2] in a line: Tolerability of single oral dosage in HCV-infected chimpanzees. To be noted: single oral dosage 200 mg. The series is classed as in vivo, chimpanzee. The protocol: Via oral gavage, two HCV-infected chimpanzees I (male, 56.49 kg and 11 years old; genotype 1b HCV) and II (male, 61.91 kg and 34 years old; genotype 1a HCV) each received a single dosage of 200 mg of Compound 1 in Formulation I while the HCV-infected chimpanzee III (male, 56.19 kg and 18 years old; genotype 1a HCV) was administered a single dosage of 260 mg of the non-phosphorylated analog of Compound 1 (Table 1) in Formulation I. After 12 hours, the HCV viral titer decreased from 24,100 to 10,200 IU/ml (or 58% drop) in Chimpanzee I, from 38,500 to 27,000 IU/ml (or 30% drop) in Chimpanzee II, and from 154,000 to 142,000 IU/ml (or 8% drop) in Chimpanzee III. […] All animals were fasted overnight prior to dosing and a minimum of 2 hours prior to scheduled blood sample collections. Viral load determinations were performed on plasma samples using the HCV TaqMan assay (COBAS® AmpliPrep/COBAS® TaqMan® HCV Test, Version 2, Test Code 1220) for quantitative analysis. […] There were no adverse effects, illness, nor distress seen with the three chimpanzees during the study requiring veterinarian intervention.

A further series deals with MCF-7. As to the kind of experiment: TC50 assay with human cancer cell lines, 96 h: MCF-7. To be noted: MCF7, 96 h, read-out: TC50 MCF-7 (μM). It counts as cell-based.
The mark [3] stands for this setting: Compound 1 0.2 nM + BMS-790052 0.010 nM.
[4] abbreviates: Compound 1 0.4 nM + BMS-790052 0.008 nM.
Where [5] appears, read: Compound 1 7.1 nM + BMS-790052 0.006 nM.
Setting [6] is: Compound 1 14.2 nM + BMS-790052 0.004 nM.

Read-outs that look alike come from different tables or passages of the source.

Protocol for BxPC3: (§2) Huh7 cells were maintained at 37° C. in a humidified atmosphere at 5% CO2 in DMEM containing 10% FBS. […] The cells were then treated with each compound at concentrations ranging from 500 μM to 0 μM in triplicate in DMEM media containing 2% FBS and 0.5% DMSO and without phenol red. After 48 h of treatment at 37° C., the relative number of living cells in each well was determined by using the CellTiter 96 system (Promega) according to the manufacturer's instructions. The 3-(4,5-dimethylthiazol-2-yl)-5-(3-carboxymethoxyphenyl)-2-(4-sulfophenyl)-2H-tetrazolium (MTS) and phenazine methosulfate (PMS) reagents were added to each well of the 96-well plate and the plate was incubated at 37° C. for approximately 2 h. The absorbance at 490 nm and 650 nm in each well was then determined by using a Flexstation 3 microplate reader (Molecular Dynamics). The absorbance determined at 650 nm was then subtracted from the absorbance determined at 490 nm to correct for light scattering. The corrected absorbance values representing the relative number of live cells in each condition were then plotted as a function of compound concentration, and the data were then fit to the following sigmoidal Emax equation by using Kaleidagraph: y=(Emax*x^Slope)/(TC50^Slope+x^Slope) where y is the relative corrected absorbance value, Emax is the maximum relative inhibition, x is the compound concentration, TC50 is the concentration of the compound at which the total cell population is reduced by 50%, and Slope is the slope of the curve.
(§3) Huh7, HEPG2, HEK293, MCF-7 and BxPC3 cell lines were maintained at 37° C. in a humidified atmosphere at 5% CO2 in DMEM containing 10% FBS. […] The cells were then treated with each compound at concentrations ranging from 500 μM to 0 μM in triplicate in DMEM media containing 2% FBS and 0.5% DMSO and without phenol red.
Protocol for HEK293: as §2, §3
Protocol for HEPG2: as §2, §3
Protocol for MCF-7: as §2, §3

As for `CCCC(CCC)C(=O)Nc1ccn([C@@H]2O[C@H](CO[P@@](=O)(N[C@@H](C)C(=O)OC(C)C)Oc3ccccc3)[C@@H](O)C2(F)F)c(=O)n1` [Compound 1, (S)-isopropyl 2-(((S)-(((2R,3R,5R)-4,4-difluoro-3-hydroxy-5-(2-oxo-4-(2-propylpentanamido)pyrimidin-1(2H)-yl)tetrahydrofuran-2-yl)methoxy)(phenoxy)phosphoryl)amino)propanoate], the CC50 in the series with BxPC3 is 7.01 ± 0.97 µM; in the series on RPK9 cells, 24.2 ± 6.4 µM; in the series with HEPG2, 1.31 ± 0.21 µM; in the series with Huh7 cells (read-out: TC50 (μM) in Huh7 cells at 48 h With NBTI), 16.4 µM; in the series with Huh7 cells (read-out: TC50 (μM) in Huh7 cells at 48 h Without NBTI), 17.4 µM; with HEK293, 4.1 ± 0.5 µM. The CC50 in the series on MCF-7 was 1.76 ± 0.67 µM. Besides, the CC50 at 48 h in series [1] amounted to 17.4 ± 3.4 µM. In addition, the “Combination Index” value in the series on HCV luciferase replicon (setting [3]) amounted to 0.505; with HCV luciferase replicon (setting [4]), 0.410; in the series with HCV luciferase replicon (setting [5]) it was 0.468; in the series with HCV luciferase replicon (setting [6]) it was 0.535; in the series on HCV luciferase replicon (Compound 1 42.3 nM, BMS-790052 0 nM), 1.000. Further, the level of synergism result in the series on HCV luciferase replicon (setting [3]) is on record as “synergism”; in the series on HCV luciferase replicon (setting [4]), “synergisn”; with HCV luciferase replicon (setting [5]), “synergism”; in the series on HCV luciferase replicon (setting [6]) it was “synergism”. Moreover, in the series with HCV luciferase replicon (co-treatment with NS5A inhibitor BMS-790052), the “interaction of Compound 1 with BMS-790052 in the inhibition of the HCV luciferase replicon” value is reported as “synergism”. Further, the “concentration of the single agent on the IC50 isobologram (Combination Index 1.000)” value in the series on HCV luciferase replicon (compound alone, other compound 0 nM) stood at 42.3 nM. The “requirement of the ENT1 transporter for cell entry” value in the series with Huh7 cells (conclusion from TC50 with/without 10 μM NBTI in Huh7 and PK9 cells) was “do not require the ENT1 transporter for cell entry”. Moreover, in [2], the tolerability entry is reported as “well tolerated”.
